Measured values as given in ChEMBL document CHEMBL5346941, “Design, synthesis and evaluation of novel monoamine oxidase B (MAO-B) inhibitors with improved pharmacokinetic properties for Parkinson's disease” (Eur J Med Chem, 2023).
Activity calls are given as the source filed them. The rule behind the calls is not given here.

Tests used:
[1] = Drug concentration in Sprague-Dawley rat plasma at 5 mg/kg, ip measured after 120 mins by LC-MS/MS analysis; format: ADME, organism-based
[2] = Drug concentration in Sprague-Dawley rat plasma at 5 mg/kg, ip measured after 60 mins by LC-MS/MS analysis; format: ADME, organism-based
[3] = Elimination half life in fasted Sprague-Dawley rat at 1 mg/kg, iv measured for 24 hrs; format: ADME, organism-based; details: in vivo, read-out: beta t1/2 (converted)
[4] = Clearance in fasted ICR mouse at 2 mg/kg, iv measured for 24 hrs; format: ADME, organism-based; details: in vivo
[5] = system: Mus musculus; assay: (§1) Anti-parkinson activity in MPTP-induced dopamine deficit C57BL/6 mouse model assessed as increase in dopamine concentration in striatum at 3 to 10 mg/kg, ip pretreated with MPTP for 4 hrs followed by compound administration for 5 times once every 4 hrs further incubated with L-dopa at 50 mg/kg for 30 mins prior to last dose and measured after 30 mins by HPLC analysis; format: functional, organism-based; details: dose 3-10 mg/kg, time 16.5 hrs
[6] = Volume of distribution at steady state in fasted ICR mouse at 2 mg/kg, iv measured for 24 hrs; format: ADME, organism-based; details: in vivo, read-out: Vdss
[7] = Apparent permeability across apical to basolateral side in MDCKII-MDR1 cells at 10 uM incubated for 30 mins by LC-MS/MS analysis; format: ADME, cell-based, Canis lupus familiaris; details: dog, MDCK-MDR1
[8] = molecular target: T1, CYP1A2 (Homo sapiens, UniProt P05177); assay: Inhibition of CYP1A2 in human liver microsomes using ethoxyresorufin as substrate at 10 uM incubated for 10 mins in presence of NADPH by LC-MS/MS analysis relative to control; format: ADME, Microsome; details: probe ethoxyresorufin
T1 sequence (P05177 whole entry): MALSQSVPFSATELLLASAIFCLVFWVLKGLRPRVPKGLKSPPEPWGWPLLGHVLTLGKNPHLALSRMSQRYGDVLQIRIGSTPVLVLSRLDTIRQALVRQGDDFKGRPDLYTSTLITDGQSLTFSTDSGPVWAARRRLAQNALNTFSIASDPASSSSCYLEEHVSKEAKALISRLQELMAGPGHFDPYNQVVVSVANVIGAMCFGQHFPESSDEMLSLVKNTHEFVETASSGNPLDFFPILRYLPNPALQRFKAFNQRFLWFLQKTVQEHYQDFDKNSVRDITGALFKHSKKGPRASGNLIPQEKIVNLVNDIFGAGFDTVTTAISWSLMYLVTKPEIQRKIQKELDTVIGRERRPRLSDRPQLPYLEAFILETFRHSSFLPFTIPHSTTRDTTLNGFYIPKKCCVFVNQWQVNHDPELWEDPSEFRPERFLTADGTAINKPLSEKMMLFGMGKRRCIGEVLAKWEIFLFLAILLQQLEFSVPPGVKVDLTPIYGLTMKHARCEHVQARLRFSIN

[9] = system: Mus musculus; assay: Anti-parkinson activity in C57BL/6 mouse model of MPTP-induced dopamine deficits assessed as increase in dopamine concentration in striatum at 1 to 3 mg/kg, ip pretreated for 30 mins followed by MPTP addition and measured after 5 days by HPLC analysis; format: functional, organism-based; details: dose 1-3 mg/kg, time 120.5 hrs
[10] = system: Mus musculus; assay: In vivo inhibition of MAO-B in ICR mouse assessed as reduction in enzyme activity in brain administered once intraperitoneally for 30 to 60 mins by amplex red based assay; format: functional, organism-based; details: dose 0.08-1.28 mg/kg, route ip, time 30-60 min
[11] = Cmax in fasted ICR mouse at 5 mg/kg, IG measured for 24 hrs; format: ADME, organism-based; design: dose 5 mg/kg, time 24 hrs, route ig; details: in vivo, po
[12] = Drug concentration in Sprague-Dawley rat brain at 5 mg/kg, ip measured after 15 mins by LC-MS/MS analysis; format: ADME, organism-based; details: read-out: Ct
[13] = Metabolic stability in monkey liver microsomes assessed as intrinsic clearance at 1 uM incubated for 60 mins in presence of NADPH by LC-MS/MS analysis; format: ADME, Macaca mulatta, Microsome; details: rhesus monkey, read-out: CLH
[14] = Metabolic stability in human liver microsomes assessed as half life at 1 uM incubated for 60 mins in presence of NADPH by LC-MS/MS analysis; format: ADME, Microsome
[15] = AUC (0 to t) in fasted ICR mouse at 5 mg/kg, IG measured for 24 hrs; format: ADME, organism-based; design: dose 5 mg/kg, time 24 hrs, route ig; details: in vivo, po
[16] = Elimination half life in fasted ICR mouse at 2 mg/kg, iv measured for 24 hrs; format: ADME, organism-based; details: in vivo, read-out: beta t1/2 (converted)
[17] = Protein binding in rat plasma at 1 uM incubated for 5 hrs by LC-MS/MS based rapid equilibrium dialysis method; format: ADME, cell-free; details: read-out: PPB (converted)
[18] = system: Mus musculus; assay: as §1, with “benserazide” for “L-dopa”, “12.5” for “50”; format: functional, organism-based; details: dose 3-10 mg/kg, time 16.5 hrs
[19] = Protein binding in mouse plasma at 1 uM incubated for 5 hrs by LC-MS/MS based rapid equilibrium dialysis method; format: ADME, cell-free; details: read-out: PPB (converted)
[20] = molecular target: T2, Amine oxidase [flavin-containing] A (Homo sapiens, UniProt P21397); assay: Inhibition of recombinant human MAO-A expressed in Sf9 cells using […] as substrate preincubated for 15 mins followed by substrate addition and measured after 60 mins by luciferin based luminescence analysis
T2 sequence (P21397 whole entry): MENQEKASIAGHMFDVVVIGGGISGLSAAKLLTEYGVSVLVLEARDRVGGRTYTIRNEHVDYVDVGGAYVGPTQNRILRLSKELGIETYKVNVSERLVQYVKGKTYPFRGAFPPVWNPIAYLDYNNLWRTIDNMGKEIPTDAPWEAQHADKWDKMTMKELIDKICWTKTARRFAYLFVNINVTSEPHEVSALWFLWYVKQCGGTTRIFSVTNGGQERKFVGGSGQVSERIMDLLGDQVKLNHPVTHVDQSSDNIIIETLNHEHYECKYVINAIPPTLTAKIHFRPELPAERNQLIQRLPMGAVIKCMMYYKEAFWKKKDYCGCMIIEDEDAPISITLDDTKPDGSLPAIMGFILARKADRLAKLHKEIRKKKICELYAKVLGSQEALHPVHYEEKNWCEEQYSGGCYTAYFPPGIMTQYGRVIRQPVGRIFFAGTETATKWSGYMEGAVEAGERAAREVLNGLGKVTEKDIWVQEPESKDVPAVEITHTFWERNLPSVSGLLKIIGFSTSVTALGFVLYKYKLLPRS

[21] = In vivo inhibition of MAO-B in ICR mouse assessed as reduction in enzyme activity in brain by measuring fold change at 1.28 mg/kg, ip administered once for 30 to 60 mins by amplex red based assay relative to safinamide; format: functional; details: time 30-60 min
[22] = AUC (0 to t) in fasted Sprague-Dawley rat at 5 mg/kg, IG measured for 24 hrs; format: ADME, organism-based; design: dose 5 mg/kg, time 24 hrs, route ig; details: in vivo, po
[23] = Drug concentration in Sprague-Dawley rat brain at 5 mg/kg, ip measured after 120 mins by LC-MS/MS analysis; format: ADME, organism-based; details: read-out: Ct
[24] = molecular target: CYP2D6 (Homo sapiens, UniProt P10635); assay: Inhibition of CYP2D6 in human liver microsomes using propranolol as substrate at 10 uM incubated for 10 mins in presence of NADPH by LC-MS/MS analysis relative to control; format: ADME, Microsome; details: probe propranolol
[25] = Metabolic stability in human liver microsomes assessed as intrinsic clearance at 1 uM incubated for 60 mins in presence of NADPH by LC-MS/MS analysis; format: ADME, Microsome; details: read-out: CLH

Chain of CYP2D6 (P10635 whole entry): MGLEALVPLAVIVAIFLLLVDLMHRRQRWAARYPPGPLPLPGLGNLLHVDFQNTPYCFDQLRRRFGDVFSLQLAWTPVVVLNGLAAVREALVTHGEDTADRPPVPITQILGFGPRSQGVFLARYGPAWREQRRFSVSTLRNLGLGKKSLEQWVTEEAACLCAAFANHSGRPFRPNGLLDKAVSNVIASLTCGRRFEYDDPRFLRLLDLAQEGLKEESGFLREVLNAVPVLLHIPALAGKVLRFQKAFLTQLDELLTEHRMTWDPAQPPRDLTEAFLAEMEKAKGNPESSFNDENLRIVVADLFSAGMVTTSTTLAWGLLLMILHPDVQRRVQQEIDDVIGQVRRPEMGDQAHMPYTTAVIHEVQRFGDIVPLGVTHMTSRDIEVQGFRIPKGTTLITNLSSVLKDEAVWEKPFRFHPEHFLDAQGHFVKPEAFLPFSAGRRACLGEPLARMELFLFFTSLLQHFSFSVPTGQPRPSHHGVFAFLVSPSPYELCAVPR

concentration at 2 h [1]: 458 ng/mL
concentration at 1 h [2]: 540 ng/mL
half-life [3]: 0.74 h
clearance [4]: 11 mL/min/kg
Vd [6]: 2.72 L/kg
Papp A→B at 0.5 h, 10 µM [7]: 8.78 ×10⁻⁶ cm/s
inhibition at 10 min, 10 µM [8]: 32.6%
Cmax [11]: 913 ng/mL
concentration at 0.25 h [12]: 5560 ng/g
CLint scaled at 1 µM [13]: 4.1 mL/min/kg
half-life at 1 µM [14]: 10.4 h
AUC(0-t) at 24 h [15]: 7950 ng·h/mL
half-life [16]: 3.37 h
fraction unbound at 5 h, 1 µM [17]: 0.0062
fraction unbound at 5 h, 1 µM [19]: 0.0066
IC50 [20]: > 10 µM
AUC(0-t) at 24 h [22]: 2280 ng·h/mL
concentration at 2 h [23]: 7090 ng/g
inhibition at 10 min, 10 µM [24]: -3.37%
CLint scaled at 1 µM [25]: 2.5 mL/min/kg
Structure (SMILES): NC(=O)[C@@H]1C[C@H](F)CN1Cc1ccc2oc(-c3ccc(F)cc3)cc2c1
Activity [5]: Active
Activity [9]: Active
inhibition [10]: Active
Activity [18]: Active
fold change (FC) [21]: 5
